EC50, AC50 and IC50 data for 6 compounds are collected here from ChEMBL document CHEMBL1201862, “PubChem BioAssay data set” (2004).

The structures appear in SMILES notation. Active and inactive are the calls of the source.

The target in one assay is Lethal factor (Bacillus anthracis, UniProt P15917). Briefly: High-throughput multiplex microsphere dose response for inhibitors of toxin protease, specifically Lethal Factor protease, compounds from Powder Set 01. The format is functional, Bacillus anthracis str. A2012. Particulars: read-out: EC50_MICROM.
Chain of Lethal factor (P15917 whole entry): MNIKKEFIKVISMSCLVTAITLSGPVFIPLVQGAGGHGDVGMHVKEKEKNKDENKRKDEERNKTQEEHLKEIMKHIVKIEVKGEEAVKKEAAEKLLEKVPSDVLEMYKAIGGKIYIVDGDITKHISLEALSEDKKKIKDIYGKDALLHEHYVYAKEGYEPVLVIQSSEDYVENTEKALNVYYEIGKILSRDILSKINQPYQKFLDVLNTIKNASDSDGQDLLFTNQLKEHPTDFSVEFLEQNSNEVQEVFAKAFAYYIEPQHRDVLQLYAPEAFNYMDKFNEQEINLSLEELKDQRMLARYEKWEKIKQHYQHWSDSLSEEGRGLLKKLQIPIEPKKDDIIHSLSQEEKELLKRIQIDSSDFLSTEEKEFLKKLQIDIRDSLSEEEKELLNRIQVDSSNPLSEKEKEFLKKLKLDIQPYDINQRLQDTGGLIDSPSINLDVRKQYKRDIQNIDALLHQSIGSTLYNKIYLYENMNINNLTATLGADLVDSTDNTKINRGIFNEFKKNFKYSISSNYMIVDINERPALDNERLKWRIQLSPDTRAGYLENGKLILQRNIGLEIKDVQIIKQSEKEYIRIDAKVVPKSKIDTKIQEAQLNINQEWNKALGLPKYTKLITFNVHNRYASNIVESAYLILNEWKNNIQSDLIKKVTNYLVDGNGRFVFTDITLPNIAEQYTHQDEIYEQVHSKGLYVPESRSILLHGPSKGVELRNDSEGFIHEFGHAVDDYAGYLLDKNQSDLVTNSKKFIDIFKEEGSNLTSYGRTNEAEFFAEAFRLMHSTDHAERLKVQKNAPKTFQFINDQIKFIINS
In assay [1] the target is T1, Botulinum neurotoxin type A (Clostridium botulinum (strain Hall / ATCC 3502 / NCTC 13319 / Type A), UniProt P0DPI1). Briefly: Confirmatory FRET assay using full length substrates for Botulinum neurotoxin light chain A protease, with Powder Set01. The format is functional.
T1 sequence (P0DPI1 2-448 limits assumed): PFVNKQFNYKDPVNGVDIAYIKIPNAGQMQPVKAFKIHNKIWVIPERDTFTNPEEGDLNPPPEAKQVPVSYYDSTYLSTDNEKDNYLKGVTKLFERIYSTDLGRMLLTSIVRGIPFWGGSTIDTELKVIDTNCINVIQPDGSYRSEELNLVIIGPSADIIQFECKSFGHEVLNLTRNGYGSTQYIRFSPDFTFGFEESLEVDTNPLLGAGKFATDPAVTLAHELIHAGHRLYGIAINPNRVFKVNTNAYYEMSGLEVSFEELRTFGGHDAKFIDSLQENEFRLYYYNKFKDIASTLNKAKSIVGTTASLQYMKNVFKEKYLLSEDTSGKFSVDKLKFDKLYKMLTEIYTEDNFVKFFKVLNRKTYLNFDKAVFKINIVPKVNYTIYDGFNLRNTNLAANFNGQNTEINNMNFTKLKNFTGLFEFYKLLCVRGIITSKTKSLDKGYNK
Assay [2] has as its target T1, Botulinum neurotoxin type A. Briefly: High-throughput multiplex microsphere dose response for inhibitors of toxin protease, specifically Botulinum neurotoxin light chain A protease, compounds from Powder Set 01. The format is functional, Clostridium botulinum A str. ATCC 3502. Particulars: read-out: EC50_MICROM.
Assay [3] in a line: P. falciparum Dd2 growth inhibitors, dose response, SYBR Green, cherry-picked samples (AID 1159567). The format is functional, cell-based.
Assay [4] is described as follows: HEK293T cytotoxicity, dose response, cytotoxicity control for miR-122 modulator project, cell-based, activator set, cherry-pick (AID 720690).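 Note: HEK293T human cells scored for general mammalian cytotoxicity.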 The format is functional.
Assay [5] is described as follows: HepG2 cell cytotoxicity, dose response, cytotoxicity control, cherry-picked samples (AID 1159577). The format is functional, cell-based.
Assay [6] in a line: miR-122 activators in hepatoma reporter cells, dose response, cell-based, Huh7 psiCHECK-miR122, Renilla luciferase, cherry-picked (AID 651956).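 Note: huh7 hepatoma cells stably carrying a psiCHECK-2 miR-122 sensor plasmid; renilla luciferase signal reporting endogenous miR-122 activity after 48 h compound exposure.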 The format is functional.
Assay [7] in a line: inhibitors of PGC1a acetylation in cells, dose response, cell-based, cherry-picked samples (AID 720514).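 Note: potency may reflect raised or lowered acetylation signal.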 The format is functional.
A further assay has as its target Paired box protein Pax-8 (Homo sapiens, UniProt Q06710). Briefly: inhibitors of PAX8-driven TPO luciferase reporter, dose response, RMG-I cells, cherry-pick (AID 687027).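 Note: luciferase reporter driven by Pax8 target thyroperoxidase promoter measured by SteadyGlo luminescence.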 The format is functional, cell-based. Background: In a reporter assay the amount or activity of a reporter protein is the signal.
Assay [8] is described as follows: cytotoxicity in OV-90 ovarian cancer cells, dose response, PAX8 inhibitor project, cell-based, plate reader, dry powder, SA8 (AID 743149). The format is functional.
Assay [9] in a line: PAX2 cell-based inhibition, dose response, selectivity assay for PAX8 inhibitor project, plate reader, dry powder samples (AID 743048).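 Note: HEK293 cells carrying a WT1 promoter luciferase reporter driven by expressed Pax2; potency is for inhibition of Pax2 driven reporter signal.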 The format is functional.
The nature of assay [10]: PAX5 activity inhibitors, dose response, selectivity assay for PAX8 inhibitor project, cell-based, plate reader, dry powder samples (AID 743047).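 Note: HEK293 cells carrying a Pax5 driven CD19 promoter luciferase reporter; potency of inhibitors that lower reporter luminescence.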 The format is functional.
A short description of assay [11]: T. cruzi growth inhibition in host cells, dose response, cell-based, plate reader, dry powder, set 2 (AID 652275). The format is functional.
The nature of assay [12]: T. cruzi intracellular amastigote growth inhibition, dose response, imaging, CA-I/72 strain, bovine embryo skeletal muscle, dry powder (AID 651885). The format is functional, cell-based.
Assay [13] has as its target Metabotropic glutamate receptor 3 (Rattus norvegicus, UniProt P31422). Briefly: mGlu3 NAM potency via calcium readout, dose response, mGlu3 NAM project, TREx293 cells, Galpha15, calcium flux (AID 651840). The format is functional.
The target of assay [14] is Kappa-type opioid receptor (Homo sapiens, UniProt P41145). Briefly: OPRK1 antagonists, late-stage follow-up, cell-based, fluorescence, dose response (AID 652032). The format is functional.
Chain of Kappa-type opioid receptor (P41145 whole entry): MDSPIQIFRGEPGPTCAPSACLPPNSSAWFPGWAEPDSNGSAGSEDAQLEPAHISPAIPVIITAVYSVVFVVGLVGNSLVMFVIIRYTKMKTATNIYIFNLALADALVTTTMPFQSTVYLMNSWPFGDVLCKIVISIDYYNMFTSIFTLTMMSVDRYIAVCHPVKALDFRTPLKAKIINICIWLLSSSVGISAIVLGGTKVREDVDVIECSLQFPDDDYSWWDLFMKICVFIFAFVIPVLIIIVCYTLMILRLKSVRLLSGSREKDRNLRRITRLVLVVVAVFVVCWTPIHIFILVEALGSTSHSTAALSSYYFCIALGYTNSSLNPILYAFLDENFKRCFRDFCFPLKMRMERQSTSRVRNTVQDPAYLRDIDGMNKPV

Chain of Paired box protein Pax-8 (Q06710 whole entry): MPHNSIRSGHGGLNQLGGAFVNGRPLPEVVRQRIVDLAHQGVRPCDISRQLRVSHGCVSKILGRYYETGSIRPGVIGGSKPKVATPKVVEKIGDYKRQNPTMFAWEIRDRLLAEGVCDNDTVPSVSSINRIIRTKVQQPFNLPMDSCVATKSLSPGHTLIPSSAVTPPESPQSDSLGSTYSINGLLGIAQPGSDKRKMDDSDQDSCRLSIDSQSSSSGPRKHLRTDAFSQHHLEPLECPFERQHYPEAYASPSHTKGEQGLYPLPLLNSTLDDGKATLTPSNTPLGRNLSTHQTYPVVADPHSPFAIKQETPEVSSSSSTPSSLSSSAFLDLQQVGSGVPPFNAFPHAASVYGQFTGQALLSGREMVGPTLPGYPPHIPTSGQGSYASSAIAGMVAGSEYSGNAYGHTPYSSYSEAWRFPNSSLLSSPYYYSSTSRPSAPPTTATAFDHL
Chain of Metabotropic glutamate receptor 3 (P31422 whole entry): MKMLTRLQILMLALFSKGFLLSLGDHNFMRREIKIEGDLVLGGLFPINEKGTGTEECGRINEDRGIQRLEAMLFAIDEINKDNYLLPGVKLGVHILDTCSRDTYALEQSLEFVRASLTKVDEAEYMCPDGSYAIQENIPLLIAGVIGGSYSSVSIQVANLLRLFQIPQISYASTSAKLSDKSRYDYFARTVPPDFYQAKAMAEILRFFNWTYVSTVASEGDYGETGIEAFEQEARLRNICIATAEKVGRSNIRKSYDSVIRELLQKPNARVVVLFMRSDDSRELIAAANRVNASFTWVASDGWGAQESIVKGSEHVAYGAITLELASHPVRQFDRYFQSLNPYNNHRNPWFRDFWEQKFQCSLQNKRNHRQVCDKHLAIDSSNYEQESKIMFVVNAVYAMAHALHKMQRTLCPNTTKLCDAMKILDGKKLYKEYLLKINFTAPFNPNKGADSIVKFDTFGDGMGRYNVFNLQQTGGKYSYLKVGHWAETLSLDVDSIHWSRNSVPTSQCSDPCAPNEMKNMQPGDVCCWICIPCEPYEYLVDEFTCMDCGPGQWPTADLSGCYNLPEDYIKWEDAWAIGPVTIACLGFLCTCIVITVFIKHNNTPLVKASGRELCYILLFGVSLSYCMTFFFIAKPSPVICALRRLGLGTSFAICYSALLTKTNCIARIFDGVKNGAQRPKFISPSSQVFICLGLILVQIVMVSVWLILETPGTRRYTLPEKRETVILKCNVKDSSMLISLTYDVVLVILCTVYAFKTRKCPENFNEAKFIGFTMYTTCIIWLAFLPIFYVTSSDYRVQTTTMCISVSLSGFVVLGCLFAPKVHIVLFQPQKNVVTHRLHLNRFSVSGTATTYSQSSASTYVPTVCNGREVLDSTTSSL

Take `COc1ccc(C2CC(c3cccs3)=NN2c2nc(C)c(C(C)=O)s2)cc1OC` (stereo unspecified): the EC50 is 9.6 µM (active) at Lethal factor, 10.4 µM (active) in assay [1] and 7.5 µM (active) in assay [2].

With `O=C(Nc1ccc(F)cc1)N1CCCCN2[C@H](CO)[C@H](c3ccc(C#Cc4ccccc4)cc3)[C@H]2C1`, the AC50 in assay [3] was 1.2 µM (active); in [4], 7.78 µM (active); in assay [5], 9.51 µM (active); in assay [6], 7.46 µM (active); in assay [7], 17.2 µM (active).

`COc1ccc(S(=O)(=O)N2CCCCN3[C@H](CO)[C@H](c4ccc(C#CC(C)C)cc4)[C@H]3C2)cc1`: the half-maximal activity concentration (AC50) is 10.4 µM (active) at Paired box protein Pax-8, 65.5 µM (active) in assay [8], 40.7 µM (active) in assay [9] and 36.8 µM (active) in [10].

Turning to `C[C@@H]1CN([C@@H](C)CO)C(=O)c2cccc(NC(=O)c3ccncc3)c2O[C@H]1CN(C)Cc1ccc(Cl)cc1`, the AC50 in assay [11] is 0.0633 µM (active). Besides, the concentration for half-maximal inhibition (IC50) in assay [12] is 0.02 µM (active).

As for `CCC1(O)CCCN(C(=O)c2ccc(C#Cc3ccc(OC)cc3)cc2)C1` (stereo unspecified), in [13], the half-maximal inhibitory concentration (IC50) turned out to be 1.8 µM.

For `COC(=O)c1cc(-c2ccccc2)cnc1N1CCC(NC2CCCCC2)CC1`, the IC50 in assay [14] is 6.2 µM (active).

The term AC50 denotes the concentration at which the activity in the assay is half-maximal. As usually defined, the IC50 is the point on the concentration scale where inhibition reaches its midpoint.
